Measurements as given in US7217733B2, “ACE inhibitor derivatives” (priority 2003, dated 2007).
Counter-ions that a name gives are not always drawn.

Assays:
[1] = test system: rats with renal mass reduction (RMR); assay: Proteinuria and renal disease progression in rats with renal mass reduction (RMR); assay type: in vivo, rat; conditions: for effect on proteinuria (in words): repeated oral treatment, at 3 months
Protocol: Sprague-Dawley rats underwent right nephrectomy and ligation of two or tree branches of the main renal artery according to Olson et al. (1982). […] A group of sham operated rats was also included (Sham). Urinary protein excretion measurements were performed before the treatment and every month thereafter. Twenty-four hour urine samples were collected using metabolic cages and proteinuria was determined by the modified Coomassie Blu G dye-binding assay for the proteins with bovine serum albumin as standard.

[2] = test system: isolated rabbit thoracic aorta preparations; assay: Study on vascular tone: vasorelaxation of noradrenaline-precontracted aortic rings; assay type: cell-based; conditions: for IC50: Oryctolagus cuniculus, concentration giving 50% reversal of NA (1 μM) contraction, rabbit thoracic aorta rings with functional endothelium, read-out: IC50 (μM) ± sem
Protocol: The ability of ACE inhibitor nitroderivatives to induce vasorelaxation in comparison to native ACE inhibitors, was tested in vitro in isolated rabbit thoracic aorta preparations (Wanstall J. C. et al., Br. J. Pharmacol., 134:463–472, 2001). Male New Zealand rabbits were anaesthetized with thiopental-Na (50 mg/kg, iv), sacrificed by exsanguinations and then the thorax was opened and the aorta dissected. Single ring preparations (4 mm in length) of thoracic aorta were set up in physiological salt solution (PSS) at 37° C. in small organ chambers (5 ml). The composition of PSS was (mM): NaCl 130, NaHCO3 14.9, KH2PO4 1.2, MgSO4 1.2, HEPES 10, CaCl2, […] (95% O2/5% CO2; pH 7.4). Each ring was mounted under 2 g passive tension in 5 ml organ bath. Isometric tension was recorded with a Grass transducer (Grass FT03) attached to a BIOPAC MP150 System. Preparations were allowed to equilibrate for 1 h, then contracted submaximally with noradrenaline (NA, 1 μM) and, when the contraction was stable, acetylcholine (ACh, 10 μM) was added. A relaxant response to ACh indicated the presence of a functional endothelium. When a stable precontraction was reached, a cumulative concentration-response curve to either of the vasorelaxant agents was obtained in the presence of a functional endothelium. Time intervals between different concentrations were based on the time needed to reach a full response. Moreover, the effect of the soluble guanylyl cyclase inhibitor ODQ (1-H-(1,2,4)-oxadiazol(4,3-a)quinoxalin-1-one) on the dilator responses elicited by the compounds was examined preincubating the aortic rings with ODQ (10 μM) for 20 min. Responses to vasorelaxing agents were measured from the plateau of NA contraction. The IC50 (concentration giving 50% reversal of NA contraction) was interpolated from the plots of relaxant-response vs log molar concentration of tested compound.
IC50 is the concentration which inhibits 50% of the response.

[3] = biological target: T1, ACE (Mus musculus, UniProt P09470); assay: Plasma ACE activity in CD1 mouse after i.v. dosing (FAPGG spectrophotometric method); assay type: in vivo; conditions: % vs basal condition
T1 construct: The plasma was stored at −20° C. until the ACE activity measurements; from tissue; host or cells: plasma of CD1 mice (heparinized blood from the vena cava)
T1 sequence (P09470 35-1237 limits assumed): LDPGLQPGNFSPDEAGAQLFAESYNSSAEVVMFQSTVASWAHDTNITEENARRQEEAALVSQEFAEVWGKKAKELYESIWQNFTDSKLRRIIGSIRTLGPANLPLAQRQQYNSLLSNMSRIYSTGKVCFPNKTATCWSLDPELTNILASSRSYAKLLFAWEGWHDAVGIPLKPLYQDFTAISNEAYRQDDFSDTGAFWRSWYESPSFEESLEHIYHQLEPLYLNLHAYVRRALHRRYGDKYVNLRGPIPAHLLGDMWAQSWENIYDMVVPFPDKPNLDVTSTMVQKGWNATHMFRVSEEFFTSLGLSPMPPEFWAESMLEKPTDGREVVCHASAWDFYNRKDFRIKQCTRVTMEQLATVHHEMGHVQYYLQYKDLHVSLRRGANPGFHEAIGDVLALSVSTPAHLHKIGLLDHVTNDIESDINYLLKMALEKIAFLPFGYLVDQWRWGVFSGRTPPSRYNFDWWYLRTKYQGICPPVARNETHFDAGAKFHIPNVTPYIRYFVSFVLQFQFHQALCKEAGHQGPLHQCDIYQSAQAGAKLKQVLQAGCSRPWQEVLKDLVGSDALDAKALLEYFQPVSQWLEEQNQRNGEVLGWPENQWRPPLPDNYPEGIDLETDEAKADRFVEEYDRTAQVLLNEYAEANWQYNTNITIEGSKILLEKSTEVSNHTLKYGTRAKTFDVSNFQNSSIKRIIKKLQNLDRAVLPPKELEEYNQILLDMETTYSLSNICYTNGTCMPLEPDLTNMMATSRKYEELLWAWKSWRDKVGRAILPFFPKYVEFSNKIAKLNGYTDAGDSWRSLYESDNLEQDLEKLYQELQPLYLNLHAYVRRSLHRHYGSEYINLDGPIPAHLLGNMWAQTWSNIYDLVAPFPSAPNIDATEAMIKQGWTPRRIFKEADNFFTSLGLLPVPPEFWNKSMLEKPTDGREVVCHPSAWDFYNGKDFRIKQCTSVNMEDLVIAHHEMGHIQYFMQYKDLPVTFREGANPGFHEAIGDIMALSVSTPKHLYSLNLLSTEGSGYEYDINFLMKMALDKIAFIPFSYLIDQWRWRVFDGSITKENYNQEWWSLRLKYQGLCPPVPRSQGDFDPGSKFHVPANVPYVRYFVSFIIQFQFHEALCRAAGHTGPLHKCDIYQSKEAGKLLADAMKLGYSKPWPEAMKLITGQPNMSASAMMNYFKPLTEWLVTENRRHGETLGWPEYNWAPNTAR
Protocol: CD1 mouse were treated i.v. with a single dose of 3 mg/Kg of enalapril and with a equimolar doses of enalapril nitroderivatives (compound of Ex. 3; 3.6 mg/Kg) and NO-ENA (3.92 mg/Kg). […] Heparinized blood samples were centrifuged at 1000 g for 20 min at 4° C. The plasma was stored at −20° C. until the ACE activity measurements. The ACE activity was determined by a spectrophotometric method (Sigma) based on the enzymatic reaction catalysed by ACE, where the FAPGG was hydrolysed to FAP. FAPGG hydrolysis produced a decrease in the absorbance at 340 nm, a marker of ACE activity in the sample.
The results, reported in Table 3, are expressed as % of ACE activity vs basal condition.

[4] = test system: L-NAME-induced hypertension in rats; assay: L-NAME-induced hypertension in rats; assay type: in vivo, rat; conditions: for Systolic blood pressure (mmHg): 2 hours after administration, equimolar doses, basal 140
Protocol: Male Wistar rats weighing 225–250 g were used. The rats were divided into two groups. Under halothane anesthesia, radiotelemetry probes were inserted into descending aorta to measure systolic blood pressure (SBP). Baseline blood pressure was recovered (103 mmHg). Both groups were then provided with drinking water supplemented with L-NAME (400 mg/L) for 7 days to induce hypertension. After this treatment all the animals have a SBP of about 140 mmHg. The rats were then treated orally each day with enalapril or an equimolar dose of enalapril-nitroderivative (compound Ex. 3). Blood pressure recordings were made 2 hours after drug administration. The study was continued over three days period of drug administration.

[5] = NO release (NOx formation) in rat plasma; assay type: in vitro ADME; conditions: 250 μM, up to 240 min
Protocol: Rat blood was freshly collected with Na-heparin as anticoagulant from male Sprague Dawley rats weighing about 300–330 g. Blood was immediately centrifuged to obtain plasma. Plasma was incubated for up to 240 min at 37° C. in presence of either compound of Ex. 3 (250 μM) or of NO-ENA (250 μM). At fixed times points samples were withdrawn from the incubation and NOx (nitrites+nitrates), the oxidative products of NO, were determined by GPC (gas phase chemiluminescence).

[6] = test system: SHR rats; assay: Hypotensive properties in SHR rats; assay type: in vivo, rat; conditions: i.v. bolus injection of equimolar doses, conscious SHR rats
Protocol: After at least 5 days after surgical catheterization of the arterial and venous femoral, conscious old (>9 months) male SHR rats were injected iv bolus with Enalapril, compound of Ex. 3 (equimolar doses) and vehicle (saline) (0.0335 mL/100 g body weight). Blood pressure and heart rate were recorded before (control period 1 h) and after IV bolus administration for up to 4 h.

[7] = 3rd month of daily oral treatment, Compound of Ex. 3 50 mg/kg, enalapril 7.5 mg/kg
[8] = 21 days after renal ablation, before the treatment
[9] = Basal (before renal ablation and treatment)
[10] = 15 min after single i.v. dose equimolar to 3 mg/Kg enalapril
[11] = 30 min after single i.v. dose equimolar to 3 mg/Kg enalapril
[12] = 1 h after single i.v. dose equimolar to 3 mg/Kg enalapril
[13] = 3 hs after single i.v. dose equimolar to 3 mg/Kg enalapril
[14] = 6 hs after single i.v. dose equimolar to 3 mg/Kg enalapril
[15] = 24 hs after single i.v. dose equimolar to 3 mg/Kg enalapril

SMILES | Proteinuria (mg/day) ± sem [1, 7] | Proteinuria (mg/day) ± sem [1, 8] | Proteinuria (mg/day) ± sem [1, 9] | effect on proteinuria (in words) [1] | IC50 [2] | relaxation of NA-contracted aortic rings (in words) ([2]; cumulative concentration-response curve) | ACE Activity (% of activity) [3, 10] | ACE Activity (% of activity) [3, 11] | ACE Activity (% of activity) [3, 12] | ACE Activity (% of activity) [3, 13] | ACE Activity (% of activity) [3, 14] | ACE Activity (% of activity) [3, 15] | Systolic blood pressure (mmHg) ([4]; 1st day of oral treatment) | Systolic blood pressure (mmHg) ([4]; 2nd day of oral treatment) | Systolic blood pressure (mmHg) ([4]; 3rd day of oral treatment) | NO-release rate compared with NO-ENA (in words) [5] | effects on L-NAME-induced hypertension compared with enalapril (in words) ([4]; oral, equimolar dose) | decrease in blood pressure compared with enalapril (in words) [6]
CCOC(=O)[C@H](CCc1ccccc1)N[C@@H](C)C(=O)N1CCC[C@H]1C(=O)O [Enalapril] | 290.5 ± 43.2 mg/day | 72.4 ± 18.3 mg/day | 15.7 ± 1.2 mg/day | only a marginal effect | > 100 µM | did not produce relaxation at any of the concentration tested | 4.8% | 5.1% | 7.3% | 19.6% | 50.8% | 100% | 128 mmHg | 125 mmHg | 120 mmHg |  |  | 
CCOC(=O)[C@H](CCc1ccccc1)N[C@@H](C)C(=O)N1CCC[C@H]1C(=O)OCCCO[N+](=O)[O-].O=C(O)/C=C\C(=O)O [Compound of Ex. 3, N-[(1S)-1-(Ethoxycarbonyl)-3-phenylpropyl]-L-alanyl-L-proline 3-nitrooxypropyl ester hydrogen maleate] | 163.9 mg/day | 76.5 ± 20.3 mg/day | 17.5 ± 1.3 mg/day | reduced proteinuria at 3 months | 30.9 ± 8.4 µM |  | 2.9% | 3.7% | 4.1% | 11.1% | 49.2% | 83.55% | 120 mmHg | 117 mmHg | 115 mmHg | much slower than the NO-release of NO-ENA | superior to those of enalapril | higher decrease in blood pressure than enalapril
C[C@H](N[C@@H](CCc1ccccc1)C(=O)OCCCO[N+](=O)[O-])C(=O)N1CCC[C@H]1C(=O)O [Compound of Ex. 1, N-[(1S)-1-(3-nitrooxypropoxycarbonyl)-3-phenylpropyl]-L-alanyl-L-proline hydrochloride] |  |  |  |  | 21.9 ± 6.9 µM |  |  |  |  |  |  |  |  |  |  |  |  | 
CCOC(=O)[C@H](CCc1ccccc1)N[C@@H](C)C(=O)N1CCC[C@H]1C(=O)Oc1cccc(CO[N+](=O)[O-])c1.O=C(O)/C=C\C(=O)O [NO-ENA, enalapril 3-(nitrooxymethyl)phenyl ester maleate] |  |  |  |  |  |  | 5.4% | 4.8% | 9.3% | 23.6% | 55.2% | 90.1% |  |  |  |  |  | 
